Test results from patent US20090298894A1, “AMINO ACID COMPOUNDS” (Asahi Kasei Pharma Corporation, priority 2008, published 2009).

Target: T1, human S1P1 (Homo sapiens, UniProt P21453)
T1 construct: expressed in transfected cells
Experiment: 35S-GTPγS binding assay using a membrane prepared from CHO cells which stably express S1P1 receptor
Assay type: biochemical
Settings: CHO cell membrane fraction stably expressing human S1P1, read-out: EC50 (concentration of agonist required to give 50% of its own maximum increase ratio), human S1P1
Protocol: ^35S-GTPγS Binding Assay Using a Membrane Prepared from CHO Cells Which Stably Express S1P1 Receptor
Functional activation of human S1P1 by the compounds was determined based on quantification of ^35S-GTPγS binding to G protein due to the receptor activation, by using a cell membrane fraction prepared from CHO cells in which human S1P1 are stably expressed. As for human S1P1, the above described human S1P1 was used. Membrane proteins as prepared and various concentrations of sphingosine-1-phosphate or the compounds diluted in a solvent such as DMSO were incubated in a solution comprising 20 mM Tris-Cl (pH 7.5), 100 mM NaCl, 10 mM MgCl2, […] (Upstate), 0.1% BSA (fatty acid free, Sigma) and 25 pM ^35S-GTPγS (specific activity 1250 Ci/mmol) in 96 well microtiter plates. Binding was performed by incubating them for 90 minutes at room temperature, and then terminated by harvesting the membrane proteins onto multiscreeen harvest FB plates (Millipore) using Millipore multiscreen separation system. After drying the harvest plates at least for 12 hours, 25 μl of MicroScint-O (Perkin Elmer) was added to each well and radioactivity was measured using a Top Counter.
Having the value measured for the well to which a solvent has been added as a control value, the agonist activity of the compounds was determined by comparing the increase in the well to which a test compound has been added to the control value, and therefore an increase ratio for each concentration of the compounds was obtained. EC50 values were culcurated as defined to be the concentration of agonist required to give 50% of its own maximum increase ratio.

T1 sequence (P21453 whole entry): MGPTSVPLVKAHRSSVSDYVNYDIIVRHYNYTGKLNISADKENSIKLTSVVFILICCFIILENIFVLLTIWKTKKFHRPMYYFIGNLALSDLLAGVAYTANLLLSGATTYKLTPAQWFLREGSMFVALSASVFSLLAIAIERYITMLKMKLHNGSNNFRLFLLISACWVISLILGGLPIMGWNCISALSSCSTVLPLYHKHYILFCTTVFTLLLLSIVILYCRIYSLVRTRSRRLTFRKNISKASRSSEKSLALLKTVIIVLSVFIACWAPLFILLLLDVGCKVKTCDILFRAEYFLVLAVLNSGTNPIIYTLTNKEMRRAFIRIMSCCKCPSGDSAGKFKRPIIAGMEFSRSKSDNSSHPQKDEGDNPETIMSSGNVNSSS

SMILES	EC50 [nM]
Cc1cc(-c2nc(-c3ccc4c(c3)CCC4N[C@H]3C[C@H](C(=O)O)C3)no2)ccc1-c1ccccc1Cl (stereo partly drawn) [Example 58]	< 10
Cc1cc(-c2nc(-c3ccc4c(c3)CCC4N[C@H]3C[C@H](C(=O)O)C3)no2)ccc1-c1ccccc1C#N (stereo partly drawn) [Example 59]	< 10
O=C(O)[C@H]1C[C@H](NC2CCc3cc(-c4noc(-c5ccc(-c6ccccc6)c(F)c5)n4)ccc32)C1 (stereo partly drawn) [Example 60]	< 10
O=C(O)[C@H]1C[C@H](NC2CCc3cc(-c4noc(-c5ccc(-c6ccccc6F)c(F)c5)n4)ccc32)C1 (stereo partly drawn) [Example 61]	< 10
O=C(O)[C@H]1C[C@H](NC2CCc3cc(-c4noc(-c5ccc(-c6ccccc6)c(Cl)c5)n4)ccc32)C1 (stereo partly drawn) [Example 62]	< 10
N#Cc1ccccc1-c1ccc(-c2nc(-c3ccc4c(c3)CCC4N[C@H]3C[C@H](C(=O)O)C3)no2)cc1Cl (stereo partly drawn) [Example 63]	< 10
Cc1cc(-c2nc(-c3ccc4c(c3)CCC4N[C@H]3C[C@H](C(=O)O)C3)no2)ccc1-c1cccc(F)c1C#N (stereo partly drawn) [Example 64]	< 10
Cc1cc(-c2nc(-c3ccc4c(c3)CCC4N[C@H]3C[C@H](C(=O)O)C3)no2)ccc1-c1cc(F)ccc1C#N (stereo partly drawn) [Example 65]	< 10
Cc1cc(-c2nc(-c3ccc4c(c3)CN([C@H]3C[C@H](C(=O)O)C3)C4)no2)ccc1-c1ccccc1Cl [Example 66]	< 10
O=C(O)[C@H]1C[C@H](N2Cc3ccc(-c4noc(-c5ccc(-c6ccccc6)c(Cl)c5)n4)cc3C2)C1 [Example 67]	< 10
O=C(O)[C@H]1C[C@H](N2Cc3ccc(-c4noc(-c5ccc(-c6ccccc6F)c(Cl)c5)n4)cc3C2)C1 [Example 68]	< 10
Cc1cc(-c2nc(-c3cc(Cl)c4c(c3)CN([C@H]3C[C@H](C(=O)O)C3)C4)no2)ccc1-c1ccccc1 [Example 77]	< 10
Cc1cc(-c2nc(-c3ccc4c(c3)CN([C@H]3C[C@H](C(=O)O)C3)C4)no2)ccc1-c1ccsc1 [Example 78]	< 10
Cc1cc(-c2nc(-c3ccc4c(c3)CN([C@H]3C[C@H](C(=O)O)C3)C4)no2)ccc1-c1ccccc1F [Example 84]	< 10
Cc1cc(-c2nc(-c3ccc4c(c3)CN([C@H]3C[C@H](C(=O)O)C3)C4)no2)ccc1-c1ccccc1C(F)(F)F [Example 85]	< 10
Cc1cc(-c2nc(-c3ccc4c(c3)CN([C@H]3C[C@H](C(=O)O)C3)C4)no2)ccc1-c1cscc1C [Example 88]	< 10
Cc1cc(-c2nc(-c3ccc4c(c3)CN([C@H]3C[C@H](C(=O)O)C3)C4)no2)c(F)cc1-c1ccccc1F [Example 89]	< 10
Cc1cc(-c2nc(-c3ccc4c(c3)CN([C@H]3C[C@H](C(=O)O)C3)C4)no2)ccc1-c1cccc(F)c1F [Example 90]	< 10
Cc1cc(-c2nc(-c3ccc4c(c3)CN([C@H]3C[C@H](C(=O)O)C3)C4)no2)ccc1-c1cccc(C(F)(F)F)c1F [Example 92]	< 10
Cc1cc(-c2nc(-c3ccc4c(c3)CN([C@H]3C[C@H](C(=O)O)C3)C4)no2)c(F)cc1-c1cccc(F)c1F [Example 93]	< 10
Cc1cc(-c2nc(-c3ccc4c(c3)CN([C@H]3C[C@H](C(=O)O)C3)C4)no2)ccc1-c1cccc(F)c1C(F)(F)F [Example 95]	< 10
Cc1cc(-c2nc(-c3ccc4c(c3)CN([C@H]3C[C@H](C(=O)O)C3)C4)no2)ccc1-c1cc(F)cc(F)c1F [Example 100]	< 10
Cc1cc(-c2nc(-c3ccc4c(c3)CN([C@H]3C[C@H](C(=O)O)C3)C4)no2)c(F)cc1-c1cc(F)cc(F)c1F [Example 102]	< 10
Cc1cc(-c2nc(-c3ccc4c(c3)CN([C@H]3C[C@@H](C(=O)O)C3)C4)no2)ccc1-c1ccccc1 [Example 104]	< 10
Cc1cc(-c2nc(-c3ccc4c(c3)CN([C@H]3C[C@@H](C(=O)O)C3)C4)no2)c(F)cc1-c1cc(F)cc(F)c1F [Example 106]	< 10

Test system: peripheral lymphocytes
Experiment: Evaluation of peripheral blood lymphocyte reduction
Assay type: in vivo
Settings: po, 6 h, rat, orally administered, six hours after the administration, read-out: ED50 (dosage required to reduce number of lymphocytes by 50%)
Protocol: Evaluation of Peripheral Blood Lymphocyte Reduction
The compound or a solvent is orally administered to a rat. 3, 6, 24, 48 or 72 hours after the administration of the compounds, blood is drawn from the rat tail. Hematological testis carried out for the whole blood sample. Using an automated analyzer (Sysmex 2000Xi), total number of peripheral lymphocytes is obtained. By having at least three animals per group, activity of the compound on the total number of peripheral lymphocytes was evaluated. Lymphocyte reduction caused by the compound administration was evaluated via comparison with an animal group which had received the solvent only. Specifically, average number of the lymphocytes for the solvent administered group was taken as 100%, and from average number of the lymphocytes for the compound administered group, control % value was calculated. Further, in view of the dosage of the compound and the dosage of the compound that is required to reduce number of lymphocytes by 50% six hours after the administration compared to the control % value was calculated as ED50.

SMILES	ED50 [mg/kg]
Cc1cc(-c2nc(-c3ccc4c(c3)CCC4NC3CC(C(=O)O)C3)no2)ccc1-c1cccc(F)c1.Cl (stereo not drawn) [Example 4]	< 1
Cc1cc(-c2nc(-c3ccc4c(c3)CCC4NC3CC(C(=O)O)C3)no2)ccc1-c1cccc(F)c1F.Cl (stereo not drawn) [Example 28]	< 1
Cc1cc(-c2nc(-c3ccc4c(c3)CCC4NC3CC(C(=O)O)C3)no2)ccc1-c1cc(F)ccc1F.Cl (stereo not drawn) [Example 29]	< 1
Cc1cc(-c2nc(-c3ccc4c(c3)CCC4NC3CC(C(=O)O)C3)no2)c(F)cc1-c1cccc(F)c1F.Cl (stereo not drawn) [Example 32]	< 1
Cc1cc(-c2nc(-c3ccc4c(c3)CCC4NC3CC(C(=O)O)C3)no2)c(F)cc1-c1cccc(C(F)(F)F)c1C(F)(F)F.Cl (stereo not drawn) [Example 48]	< 1

Test system: rat having arthritis caused by an adjuvant
Experiment: Animal model having arthritis caused by an adjuvant
Assay type: in vivo
Settings: female Lewis rat, oral once a day, twenty-one days after the administration
Protocol: Animal Model Having Arthritis Caused by an Adjuvant
Seven-week old female Lewis rat is used for the evaluation. After measuring the volume of the hind leg of the rat, M. tuberculosis H37 RA (manufactured by Difco, 500 μg/100 μl) which has been suspended in fluid paraffin as an adjuvant, is subcutaneously injected in the sole of rear left foot of the rat to prepare a rat having arthritis caused by an adjuvant. The compounds to be tested are suspended in 1% methyl cellulose solution, and force the animal to be orally administered with the suspension into the stomach by using a sonde, once a day for twenty-one days from the start of the adjuvant injection. Evaluation of arthritis is carried out by measuring volume of the foot of each animal by using a plethysmometer (manufactured by UGO BASILE). By comparing the value for the group administered with the compounds of the present invention with the solvent administered group, effect of the compounds is determined. Specifically, the swelling of the sole of the rear left foot of the solvent administered group is taken as 100%, and in view of the swelling of the animals of the compound administered group, control % values are calculated. […]

SMILES	ED50 (dosage required to reduce the swelling of sole of the rear left foot by 50%)
Cc1cc(-c2nc(-c3ccc4c(c3)CCC4N[C@H]3C[C@H](C(=O)O)C3)no2)ccc1-c1ccccc1.Cl (stereo partly drawn) [Example 1, 1,3-Trans-3-(5-(5-(2-methylbiphenyl-4-yl)-1,2,4-oxadiazol-3-yl)-2,3-dihydro-1H-inden-1-ylamino)cyclobutanecarboxylic acid hydrochloride salt]	less than 1 mg/kg

Test system: not given
Experiment: not given
Settings: reported in Non-Patent Document 1; cited from earlier work

SMILES	side effect after administration
CCCCCCCCc1ccc(CCC(N)(CO)CO)cc1 [FTY720]	bradycardia is found after administration

Test system: not given
Experiment: not given
Settings: rats, intravenous administration, Non-Patent Document 2; cited from earlier work

SMILES	effect on heart rate
CCCCCCCCCCCCC/C=C/[C@@H](O)[C@@H](N)COP(=O)(O)O [sphingosine 1-phosphate]	decreases the heart rate
